Test results: US10961238B2, “Modulators of hedgehog (Hh) signaling pathway” (E-THERAPEUTICS PLC, priority 2016, dated 2021)

Test system: C3H10T1/2 cells
Test: C3H assay: differentiation of C3H10T1/2 cells by mSHH, measurement of alkaline phosphatase
Assay type: cell-based, mouse
Conditions: Mus musculus, C3H 10T1/2; C3H10T1/2 cells stimulated with mSHH for 72 hours; alkaline phosphatase activity; read-out: IC50 Ranges

## CC(C)(C)OC(=O)N1CC(S(=O)(=O)N2CCC(c3csc4cccnc34)CC2)C1 [Compound 17, tert-butyl 3-(4-thieno[3,2-b]pyridin-3-ylpiperidin-1-yl)sulfonylaze-tidine-1-carboxylate]
  IC50: 10 to 100 nM

## CC(C)(C)OC(=O)N1CCC(S(=O)(=O)N2CCC(c3csc4cccnc34)CC2)CC1 [Compound 18, tert-butyl 4-(4-thieno[3,2-b]pyridin-3-ylpiperidin-1-yl)sulfonylpiper-idine-1-carboxylate]
  IC50: 10 to 100 nM

## CC(C)(C)OC(=O)N1CCC(S(=O)(=O)N2CCC(c3c[nH]c4ncccc34)CC2)CC1 [Compound 19, tert-butyl 4-[4-(1H-pyrrolo[2,3-b]pyridin-3-yl)piperidin-1-yl]sulfonylpiper-idine-1-carboxylate]
  IC50: 10 to 100 nM

## CC(C)(C)OC(=O)N1CCC(S(=O)(=O)N2CCC(C3CCOCC3)CC2)CC1 [Compound 20, tert-butyl 4-[4-(oxan-4-yl)piperidin-1-yl]sulfonylpiper-idine-1-carboxylate]
  IC50: 1000 to 10000 nM

## O=C(Nc1ccccc1)N1CCC(S(=O)(=O)N2CCC(c3ccncc3)CC2)CC1 [Compound 21, N-phenyl-4-(4-pyridin-4-ylpiperidin-1-yl)sulfonylpiper-idine-1-carboxamide]
  IC50: 1000 to 10000 nM

## CC(C)(C)OC(=O)N1CC(S(=O)(=O)N2CCC(c3ccncc3)CC2)C1 [Compound 22, tert-butyl 3-(4-pyridin-4-ylpiperidin-1-yl)sulfonylaze-tidine-1-carboxylate]
  IC50: 100 to 1000 nM

## CC(C)(C)OC(=O)N1CCC(S(=O)(=O)N2CCC(c3ccncc3)CC2)CC1 [Compound 23, tert-butyl 4-(4-pyridin-4-ylpiperidin-1-yl)sulfonylpiper-idine-1-carboxylate]
  IC50: 100 to 1000 nM

## CC(C)C(CO)NC(=O)N1CC(S(=O)(=O)N2CCC(c3ccncc3)CC2)C1 (stereo not drawn) [Compound 24, 3-(4-pyridin-4-ylpiperidin-1-yl)sulfonyl-N-[1-hydroxy-3-methylbutan-2-yl]azetidine-1-carboxamide]
  IC50: 100 to 1000 nM

## Cc1noc(C)c1NC(=O)N1CC(S(=O)(=O)N2CCC(c3cccnn3)CC2)C1 [Compound 25, N-(3,5-dimethyl-1,2-oxazol-4-yl)-3-(4-pyridazin-3-ylpiperidin-1-yl)sulfonylaze-tidine-1-carboxamide]
  IC50: 1000 to 10000 nM

## COc1ccccc1OC(=O)N1CC(S(=O)(=O)N2CCC(c3ccncc3)CC2)C1 [Compound 27, (2-methoxyphenyl) 3-(4-pyridin-4-ylpiperidin-1-yl)sulfonylaze-tidine-1-carboxylate]
  IC50: 10 to 100 nM

## COC1CCC(OC(=O)N2CC(S(=O)(=O)N3CCC(c4ccncc4)CC3)C2)CC1 (stereo not drawn) [Compound 28, (4-methoxycyclo-hexyl) 3-(4-pyridin-4-9-ylpiperidin-1-yl)sulfonylaze-tidine-1-carboxylate]
  IC50: 100 to 1000 nM

## O=C(OC1CCOCC1)N1CC(S(=O)(=O)N2CCC(c3ccncc3)CC2)C1 [Compound 29, oxan-4-yl 3-(4-pyridin-4-ylpiperidin-1-yl)sulfonylaze-tidine-1-carboxylate]
  IC50: 1000 to 10000 nM

## O=C(OCC1CCCO1)N1CC(S(=O)(=O)N2CCC(c3ccncc3)CC2)C1 (stereo not drawn) [Compound 30, (oxolan-2-yl)methyl 3-(4-pyridin-4-ylpiperidin-1-yl)sulfonylaze-tidine-1-carboxylate]
  IC50: 1000 to 10000 nM

## CN(C(=O)N1CC(S(=O)(=O)N2CCC(c3ccncc3)CC2)C1)C(C)(C)C [Compound 31, N-tert-butyl-N-methyl-3-(4-pyridin-4-ylpiperidin-1-yl)sulfonylaze-tidine-1-carboxamide]
  IC50: 100 to 1000 nM

## CC1(C)COCC(C)(C)N1C(=O)N1CC(S(=O)(=O)N2CCC(c3ccncc3)CC2)C1 [Compound 32, [3-(4-pyridin-4-ylpiperidin-1-yl)sulfonylaze-tidin-1-yl]-(3,3,5,5-tetramethylmor-pholin-4-yl)methanone]
  IC50: 100 to 1000 nM

## CC(C)(C)CC(C)(C)NC(=O)N1CC(S(=O)(=O)N2CCC(c3ccncc3)CC2)C1 [Compound 33, 3-(4-pyridin-4-ylpiperidin-1-yl)sulfonyl-N-(2,4,4-trimethylpentan-2-yl)azetidine-1-carboxamide]
  IC50: 10 to 100 nM

## C[C@@H]1CN(C(=O)N2CC(S(=O)(=O)N3CCC(c4cnc5occc5c4)CC3)C2)C[C@H](C)O1 [Compound 35, [(2R,6S)-2,6-dimethylmorpholin-4-yl]-[3-(4-furo[2,3-b]pyridin-5-ylpiperidin-1-yl)sulfonylaze-tidin-1-yl]methanone]
  IC50: 100 to 1000 nM

## Cc1noc(C)c1NC(=O)N1CC(S(=O)(=O)N2CCC(c3cnc4c(c3)CCO4)CC2)C1 [Compound 36, 3-[4-(2,3-dihydrofuro[2,3-b]pyridin-5-yl)piperidin-1-yl]sulfonyl-N-(3,5-dimethyl-1,2-oxazol-4-yl)azetidine-1-carboxamide]
  IC50: 1000 to 10000 nM

## Cc1noc(C)c1NC(=O)N1CC(S(=O)(=O)N2CCC(c3cnc4occc4c3)CC2)C1 [Compound 37, N-(3,5-dimethyl-1,2-oxazol-4-yl)-3-(4-furo[2,3-b]pyridin-5-ylpiperidin-1-yl)sulfonylaze-tidine-1-carboxamide]
  IC50: 1000 to 10000 nM

## O=C(OC1CCCCC1)N1CC(S(=O)(=O)N2CCC(c3cnc4occc4c3)CC2)C1 [Compound 38, cyclohexyl 3-(4-furo[2,3-b]pyridin-5-ylpiperidin-1-yl)sulfonylaze-tidine-1-carboxylate]
  IC50: 100 to 1000 nM

## Cc1noc(C)c1NC(=O)N1CC(S(=O)(=O)N2CCC(c3c[nH]c4cccnc34)CC2)C1 [Compound 39, N-(3,5-dimethyl-1,2-oxazol-4-yl)-3-[4-(1H-pyrrolo[3,2-b]pyridin-3-yl)piperidin-1-yl]sulfonylaze-tidine-1-carboxamide]
  IC50: 10 to 100 nM

## O=C(OC1CCCCC1)N1CC(S(=O)(=O)N2CCC(c3cn(C(=O)OC4CCCCC4)c4cccnc34)CC2)C1 [Compound 40, cyclohexyl 3-[1-(1-cyclohexyloxycarbonylazetidin-3-yl)sulfonylpiper-idin-4-yl]pyrrolo [3,2-b]pyridine-1-carboxylate]
  IC50: 1000 to 10000 nM

## O=C(OC1CCCCC1)N1CC(S(=O)(=O)N2CCC(c3c[nH]c4cccnc34)CC2)C1 [Compound 41, cyclohexyl 3-[4-(1H-pyrrolo[3,2-b]pyridin-3-yl)piperidin-1-yl]sulfonylaze-tidine-1-carboxylate]
  IC50: 10 to 100 nM

## Cc1noc(C)c1NC(=O)N1CC(S(=O)(=O)N2CCC(c3cn(C)c4nccnc34)CC2)C1 [Compound 42, N-(3,5-dimethyl-1,2-oxazol-4-yl)-3-[4-(5-methylpyrrolo [2,3-b]pyrazin-7-yl)piperidin-1-yl]sulfonylaze-tidine-1-carboxamide]
  IC50: 1000 to 10000 nM

## Cc1noc(C)c1NC(=O)N1CC(S(=O)(=O)N2CCC(c3c[nH]c4nccnc34)CC2)C1 [Compound 43, N-(3,5-dimethyl-1,2-oxazol-4-yl)-3-[4-(5H-pyrrolo [2,3-b]pyrazin-7-yl)piperidin-1-yl]sulfonylaze-tidine-1-carboxamide]
  IC50: 10 to 100 nM

## O=C(OC1CCCCC1)N1CC(S(=O)(=O)N2CCC(c3c[nH]c4nccnc34)CC2)C1 [Compound 44, cyclohexyl 3-[4-(5H-pyrrolo[2,3-b]pyrazin-7-yl)piperidin-1-yl]sulfonylaze-tidine-1-carboxylate]
  IC50: 10 to 100 nM

## CC1CC(c2c[nH]c3ncccc23)CCN1S(=O)(=O)C1CN(C(=O)OC(C)(C)C)C1 (stereo not drawn) [Compound 46, tert-butyl 3-[2-methyl-4-(1H-pyrrolo [2,3-b]pyridin-3-yl)piperidin-1-yl]sulfonylaze-tidine-1-carboxylate]
  IC50: 1000 to 10000 nM

## COc1ccc(C2CCN(S(=O)(=O)C3CN(C(=O)OC(C)(C)C)C3)CC2)nc1 [Compound 47, tert-butyl 3-[4-(5-methoxypyridin-2-yl)piperidin-1-yl]sulfonylaze-tidine-1-carboxylate]
  IC50: 1000 to 10000 nM

## COc1ccc(C2CCN(S(=O)(=O)C3CN(C(=O)OC(C)(C)C)C3)CC2)cn1 [Compound 48, tert-butyl 3-[4-(6-methoxypyridin-3-yl)piperidin-1-yl]sulfonylaze-tidine-1-carboxylate]
  IC50: 100 to 1000 nM

## CC(C)(C)OC(=O)N1CC(S(=O)(=O)N2CCC(c3c[nH]c4cccnc34)CC2)C1 [Compound 49, tert-butyl 3-[4-(1H-pyrrolo[3,2-b]pyridin-3-yl)piperidin-1-yl]sulfonylaze-tidine-1-carboxylate]
  IC50: 10 to 100 nM

## CN(C)CC(C)(C)OC(=O)N1CC(S(=O)(=O)N2CCC(c3c[nH]c4ncccc34)CC2)C1 [Compound 50, [1-(dimethylamino)-2-methylpropan-2-yl] 3-[4-(1H-pyrrolo[2,3-b]pyridin-3-yl)piperidin-1-yl]sulfonylaze-tidine-1-carboxylate]
  IC50: 10 to 100 nM

## CN1CCC(COC(=O)N2CC(S(=O)(=O)N3CCC(c4c[nH]c5ncccc45)CC3)C2)CC1 [Compound 51, (1-methylpiperidin-4-yl)methyl 3-[4-(1H-pyrrolo [2,3-b]pyridin-3-yl)piperidin-1-yl]sulfonylaze-tidine-1-carboxylate]
  IC50: 100 to 1000 nM

## CCN(CC)CCOC(=O)N1CC(S(=O)(=O)N2CCC(c3c[nH]c4ncccc34)CC2)C1 [Compound 52, 2-(diethylamino) ethyl 3-[4-(1H-pyrrolo [2,3-b]pyridin-3-yl)piperidin-1-yl]sulfonylaze-tidine-1-carboxylate]
  IC50: 100 to 1000 nM

## CN1CCN(CCCOC(=O)N2CC(S(=O)(=O)N3CCC(c4c[nH]c5ncccc45)CC3)C2)CC1 [Compound 53, 3-(4-methylpiperazin-1-yl)propyl 3-[4-(1H-pyrrolo [2,3-b]pyridin-3-yl)piperidin-1-yl]sulfonylaze-tidine-1-carboxylate]
  IC50: 1000 to 10000 nM

## O=C(OCCN1CCOCC1)N1CC(S(=O)(=O)N2CCC(c3c[nH]c4ncccc34)CC2)C1 [Compound 54, 2-morpholin-4-ylethyl 3-[4-(1H-pyrrolo [2,3-b]pyridin-3-yl)piperidin-1-yl]sulfonylaze-tidine-1-carboxylate]
  IC50: 10 to 100 nM

## Cc1noc(C)c1CNC(=O)N1CC(S(=O)(=O)N2CCC(c3c[nH]c4ncccc34)CC2)C1 [Compound 55, N-[(3,5-dimethyl-1,2-oxazol-4-yl)methyl]-3-[4-(1H-pyrrolo[2,3-b]pyridin-3-yl)piperidin-1-yl]sulfonylaze-tidine-1-carboxamide]
  IC50: 10 to 100 nM
